Laboratory results from US20250388592A1 (REMYND N.V., priority 2022, published 2025).

What was measured:
[1] = system: Tau-P301S transgenic mice; experiment: Hippocampal long-term potentiation (CA3-CA1 fEPSP) in human Tau transgenic mice model of Alzheimer disease; format: in vivo, mouse; conditions: 25 mpk orally twice daily for 7 days, 41-60 minute post-induction interval
Excerpt: The Tau-P301S line of mice was transgenic for the 383 aa isoform of human tau with the P301S mutation (Allen et al., 2002). In these mice, a clinical mutant of the human Tau (P301S) was expressed under control of the murine Thy1 promoter (neuron-specific expression) in C57Bl/6JxCBA/ca background. The homozygous hTauP301S-Tg model used consisted of the progeny from a cross between two homozygous hTauP301S-Tg parental mice in C57Bl/6JxCBA/ca background, bred in SPF breeding conditions.
Six mice (3,5 months of age) per group were treated orally once daily for 7 days with vehicle or 0.4, 2 or 10 mg/kg cpd B061, or twice daily for 7 days with vehicle or 25 mg/kg cpd B112, formulated in labrasol/capryol (70/30% W/V). A wild type vehicle group was included as well. The mice in study were sacrificed after a minimum of 7 days of acclimatization and 7 days of dosing. LTP measurements occurred between 90 and 120 minutes after excision of the brain.
Mice were anaesthetized with isoflurane and then decapitated. Heads were immediately immersed in ice-cold freshly prepared artificial CSF (cerebrospinal fluid) (aCSF) for at least 2 min before brain extraction. Acute slices (400 μm thick) were prepared with a vibratome (VT 1000S; Leica Microsystems, Bannockburn, IL) in ice-cold gassed aCSF. Sections were incubated in aCSF at 34° C. for 20 min and then kept at room temperature for at least 1 h before recording. aCSF was composed of the following (in mM): 119 NaCl, 11 d-glucose, 1.3 MgCl2·6H2O, 1.3 NaH2PO4, 2.5 KCl, 2.5 CaCl2, 26 NaHCO3, gassed with O2/CO2 (95/5%) at least 20 min before use and throughout the experiment.
Recordings were performed in a submerged chamber continuously flowed with aCSF at 2 ml/min. Extracellular field excitatory postsynaptic potentials (fEPSPs) were recorded in the CA1 stratum radiatum using a glass micropipette filled with aCSF. fEPSPs were evoked by the electrical

M17_3TAU(P301L) cells = experiment: TAU-induced cytotoxicity (LDH) in the neuroblastoma tauopathy model; format: cell-based; conditions: Homo sapiens, 168 h, inhibition of TAU-induced toxicity, 7 days retinoic acid differentiation, LDH readout
Method in brief: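 Stably transfected BE-M17 cells expressing human TAU-P301L, seeded in serum-free detection medium, then differentiated with 2.5 μM RA (added in equal volume) for 7 days at 37° C/5% CO2 to induce TAU aggregation. Cytotoxicity = supernatant LDH increase over total LDH; EC50 from dose-dependent inhibition curves.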

## O=C(CC1CCC(F)(F)CC1)N1CC2(CN(Cc3ncccc3C(F)(F)F)C2)C1 [Cpd B112]
[1]
  Average fEPSP slope (% of baseline): 144.4 % of baseline
M17_3TAU(P301L) cells
  EC50: 12.2 nM
